Source: patent publication US6147097A, “Imidazole derivatives as anti-HIV agents” (Shionogi & Co., Ltd., priority 1994, dated 2000)
Values after ≈ are worked out from the molar mass of the structure shown. Where two headings read alike, the source gives them in different places.

Tests used:
[1] = cytotoxicity in MT-4 cells (MTT, culture medium in place of HIV); format: cell-based; details: human
Experimental: (§1) The anti-HIV activity of each of the compounds produced in Examples was assayed by the following procedures. (1) Human T cell line MOLT-4 clone 8 persistently infected by HIV (HTLV-IIIB strain) was cultured in an RPMI-1640 medium supplemented with 10% fetal calf serum, the culture supernatant was filtered, and the titer of virus was determined; the culture supernatant was stored at -80° C. On the other hand, the test compound was diluted with the above culture medium to predetermined concentrations and distributed in 50 μl aliquots into a 96-well microtiter plate. Then, d suspension of MT-4 cells was added in 100 μl aliquots (3.5×10^4 cells per well) and then the above HIV-containing supernatant diluted with the above culture medium was added, 50 μl (60 pfu (plaque forming units)) per well. (2) The plate was incubated in a CO2 incubator at 37° C. for 5 days. Then, 30 μl/well of 3-(4,5-dimethyl thiazol-2-yl)-2,5-diphenyltetrazolium bromide (MTT) (5 mg/ml PBS) was added and the incubation was further continued for 1 hour. The surviving cells reducing MTT yield precipitation of formazan. Therefore, 150 μl portions of the culture supernatant were removed from all wells and, instead, 150 μl of a solution (10% Triton X-100 and 0.4% (v/v) HCl-added isopropyl alcohol) was added. The plate was shaken on a plate mixer to dissolve the formazan. The OD of formazan was measured with a microreader at 560 nm arid 690 nm (reference wavelength) and the result was compared with that of control.
The cytotoxicity of each of the compounds produced in Examples was assayed. In place of the HIV-containing supernatant (the virus suspension) in (1) in Test Example 1, 50 μl of the culture medium was added to each well, and the cytotoxicity was determined in the same manner as that for (2) in Test Example 1.

HIV (HTLV-IIIB strain) = experiment: microbe, parasite or virus in culture; format: cell-based
Experimental: as §1, with “(1) Human T cell line MOLT-4 clone 8 persistently infected by HIV (HTLV-IIIB strain) was cultured in an RPMI-1640 medium supplemented with 10% fetal calf serum, the culture supernatant was filtered, and the titer of virus was determined; the culture supernatant was stored at -80° C.” left out, “formazan.” for “formazan. The OD of formazan was measured with a microreader at 560 nm arid 690 nm (reference wavelength) and the result was compared with that of control.”

[2] = target: T1, purified recombinant HIV-1 reverse transcriptase (Human immunodeficiency virus type 1 group M subtype B, UniProt P04585); experiment: reverse transcriptase inhibition, poly(rA)/(dT) template primer, [3H]dTTP uptake; format: biochemical
T1 construct: purified recombinant HIV-1 reverse transcriptase; made in house; host or cells: Escherichia coli
Experimental: The reverse transcriptase activity of each of the compounds synthesized in Examples was assayed by the following procedures.
Using the purified recombinant HIV-1 reverse transcriptase RT, E.C. 2.7.7.49) obtained by expression in Escherichia Coli, a 96-well plate assay system was established for assaying a large number of samples. The RT inhibitory activity was determined as follows. To 11 μl of a solution of the test inhibitor in water or MSO was added 100 μl of a reaction mixture (0.1 unit/100 μl RT, 50 mM Tris-HCl pH 8.3, 150 mM KCl, 10 mM MgCl2, 3 mM dithiothreitol, 0.1% Nonidet P-40, 10 μg/ml. poly(rA) and 10 μg/ml (dT)12-1.8 as template and primer, and 4 μM dTTP, 1 μCi/100 μl [^3 H]dTTP as substrate) and the mixture was incubated at 37° C. for 1 hour and, then, immediately cooled on ice. Using a cell harvester, the reaction mixture was transferred to a DEAE-filter mat (LKB-Pharmacia). Then, using the wash line of the cell harvester, the cells were washed twice with 5% Na2 HPO4 /H2 O and once with water and dried at 95° C. for 15 minutes. […] The inhibitory activity was expressed in percent inhibition relative to the uptake on water or DMSO control.

[3] = MT-4 cells, no virus, 37° C., 5 days, MTT, Table 3, read-out: CC50
[4] = Human immunodeficiency virus 1, IIIB, MT4, 120 h, MT-4 cells, 60 pfu HIV per well, 37° C., 5 days, MTT, Tables 1 and 2, read-out: EC50
[5] = Human immunodeficiency virus 1, IIIB, MT4, 120 h

Compound | CC50 at 120 h [1, 3] [µg/mL] | EC50 (HIV (HTLV-IIIB strain); [4]) [µg/mL] | IC50 [2] [µM] | CC50 at 120 h ([1]; mt-4 cells) [µg/mL] | EC50 (HIV (HTLV-IIIB strain); [5]) [µg/mL] | EC50 (HIV (HTLV-IIIB strain); MT-4 cells, 60 pfu HIV per well, 37° C., 5 days, MTT, Tables 1 and 2) [µg/mL] | RT IC50 ([2]; pH 8.3, 37° C., 1 hour, Tables 5 and 6) [µg/mL]
Cc1nc(C(C)C)c(Cc2cc(Cl)cc(Cl)c2)n1C [Compound I-100, 5-(3,5-dichlorobenzyl)-1,2-dimethyl-4-isopropyl-1H-imidazole] | 12.5 (≈ 42.1 µM) | 1 (≈ 3.36 µM) | 42.1 |  |  |  | 
Cc1nc(C(C)C)c(Sc2cc(Cl)cc(Cl)c2)n1C [Compound I-1, 5-(3,5-dichlorophenylthio)-1,2-dimethyl-4-isopropyl-1H-imidazole] | 6.3 to 12.5 (≈ 20 to 39.6 µM) | 0.008 (≈ 0.0254 µM) | 3.81 |  |  |  | 
CC(C)c1nc(CO)n(CCCc2ccccc2)c1Sc1cc(Cl)cc(Cl)c1 [Compound I-122, 5-(3,5-dichlorophenylthio)-2-hydroxymethyl-4-isopropyl-1-(3-phenylpropyl)-1H-imidazole] |  | 0.008 (≈ 0.0184 µM) | 7.12 | 6.3 to 12.5 (≈ 14.5 to 28.7 µM) |  |  | 
CC(C)c1nc(COC(N)=O)n(Cc2ccc(=O)[nH]c2)c1Sc1cc(Cl)cc(Cl)c1 [Compound I-131, 2-carbamoyloxymethyl-5-(3,5-dichlorophenylthio)-1-(6-oxo-1,6-dihydro-pyridin-3-yl)methyl-4-isopropyl-1H-imidazoles] |  | 0.003 (≈ 0.00642 µM) | 2.78 | 38.8 (≈ 83 µM) |  |  | 
CC(C)c1c(Sc2cccc(Cl)c2)nc(COC(N)=O)n1C [Compound I-59, 2-carbamoyloxymethyl-4-(3-chlorophenylthio)-5-isopropyl-1-methylimidazole] | 12.5 to 25 (≈ 36.8 to 73.6 µM) |  | > 294 |  | 12.5 (≈ 36.8 µM) |  | 
CCn1c(CCCO)nc(C(C)C)c1Sc1cc(Cl)cc(Cl)c1 [Compound 137b, 3-(5-(3,5-dichlorophenylthio)-1-ethyl-4-isopropyl-1H-imidazol-2-yl)-propan-1-ol] |  | 0.005 to 0.01 (≈ 0.0134 to 0.0268 µM) | 0.991 | 6.3 to 12.5 (≈ 16.9 to 33.5 µM) |  |  | 
CC(C)c1nc(CO)n(Cc2ccccc2)c1Sc1cccc(Cl)c1 [Compound I-20, [1-benzyl-5-(3-chlorophenylthio)-4-isopropyl-1H-imidazol-2-yl]methanol] | 6.3 to 12.5 (≈ 16.9 to 33.5 µM) | 0.008 (≈ 0.0215 µM) | 5.63 |  |  |  | 
CC(C)c1nc(CCOC(N)=O)n(C)c1Sc1cc(Cl)cc(Cl)c1 [Compound I-81, 2-(2-carbamoyloxy)ethyl-5-(3,5-dichlorophenylthio)-4-isopropyl-1-methyl-1H-imidazole] | 10 to 100 (≈ 25.8 to 258 µM) |  | 7.73 |  | 0.13 (≈ 0.335 µM) |  | 
CC(C)c1nc(CO)n(CCCc2ccccn2)c1Sc1cc(Cl)cc(Cl)c1 [Compound 112b, 5-(3,5-dichlorophenylthio)-4-isopropyl-2-hydroxymethyl-1-(3-(2-pyridyl)propyl)-1H-imidazole] |  | < 0.008 | 5.96 | 6.3 to 12.5 (≈ 14.4 to 28.6 µM) |  |  | 
CC(C)c1nc(CO)n(Cc2ccc[nH]c2=O)c1Sc1cc(Cl)cc(Cl)c1 [Compound 116b, 5-(3,5-dichlorophenyl-thio)-2-hydroxymethyl-1-(2(1H)-pyridon-3-ylmethyl)-4-isopropyl-1H-imidazole] |  | 0.016 (≈ 0.0377 µM) | 7.54 | 50 (≈ 118 µM) |  |  | 
CC(C)c1nc(COC(N)=O)n(C)c1Cc1cc(Cl)cc(Cl)c1 [Compound I-103, 2-carbamoyloxymethyl-5-(3,5-dichlorobenzyl)-4-isopropyl-1-methyl-1H-imidazole] | 10 to 100 (≈ 28.1 to 281 µM) |  | 19.1 |  | 0.5 (≈ 1.4 µM) |  | 
CC(C)c1nc(CCO)n(Cc2ccccc2[N+](=O)[O-])c1Sc1cc(Cl)cc(Cl)c1 [Compound 126c, 5-(3,5-Dichlorophenylthio)-2-(2-hydroxyethyl)-4-isopropyl-1-o-nitrobenzyl-1H-imidazole] |  | 0.13 (≈ 0.279 µM) | 60.9 | 6.3 (≈ 13.5 µM) |  |  | 
CC(C)c1nc(CCOC(N)=O)n(Cc2ccncc2)c1Sc1cc(Cl)cc(Cl)c1 [Compound I-138, 2-(2-carbamoyloxyethyl)-5-(3,5-dichlorophenylthio)-4-isopropyl-1-(pyridin-4-yl)methyl-1H-imidazole] |  | 0.008 (≈ 0.0172 µM) | 3.22 | 12.5 (≈ 26.9 µM) |  |  | 
CC(C)c1nc(CCOC(N)=O)n(Cc2ccc([N+](=O)[O-])cc2)c1Sc1cc(Cl)cc(Cl)c1 [Compound 128a, 2-(2-carbamoyloxyethyl)-5-(3,5-dichlorophenylthio)-4-isopropyl-1-(p-nitrobenzyl)-1H-imidazole] |  | 3.1 to 6.3 (≈ 6.09 to 12.4 µM) | 104 | 6.3 (≈ 12.4 µM) |  |  | 
CC(C)c1nc(COC(N)=O)n(CCOC(N)=O)c1Sc1cc(Cl)cc(Cl)c1 [Compound I-134, 1-(2-carbamoyloxyethyl)-2-carbamoyloxymethyl-5-(3,5-dichlorophenylthio)-4-isopropyl-1H-imidazole] |  | 0.0013 (≈ 0.00291 µM) | 1.54 | 12.5 to 25 (≈ 27.9 to 55.9 µM) |  |  | 
CC(C)C(=O)c1nc(C(C)C)c(Sc2cc(Cl)cc(Cl)c2)n1C [Compound I-12, [5-(3,5-dichlorophenylthio)-4-isopropyl-1-methyl-1H-imidazol-2-yl] isopropyl ketone] | 50 to 100 (≈ 135 to 269 µM) | 50 (≈ 135 µM) | > 269 |  |  |  | 
Cc1cc(C)cc(Sc2c(C(C)C)nc(C=NN)n2C)c1 [Compound I-11, 5-(3,5-dimethylphenylthio)-4-isopropyl-1-methyl-1H-imidazole-2-carbaldehyde hydrazone] | 1 to 10 (≈ 3.31 to 33.1 µM) | 0.25 (≈ 0.827 µM) | 54.6 |  |  |  | 
CCCCn1c(CO)nc(C(C)C)c1Sc1cc(Cl)cc(Cl)c1 [Compound I-15, [1-n-butyl-5-(3,5-dichlorophenylthio)-4-isopropyl-1H-imidazol-2-yl]methanol] | 6.3 to 12.5 (≈ 16.9 to 33.5 µM) | 0.005 to 0.01 (≈ 0.0134 to 0.0268 µM) | 2.01 |  |  |  | 
CC(C)c1nc(COC(N)=O)n(CC(F)(F)F)c1Sc1cc(Cl)cc(Cl)c1 [Compound I-55, 2-carbamoyloxymethyl-5-(3,5-dichlorophenylthio)-4-isopropyl-1-(1,1,1-trifluoroethyl)-1H-imidazole] | 10 to 100 (≈ 22.6 to 226 µM) | 0.008 (≈ 0.0181 µM) | 5.65 |  |  |  | 
CC(C)c1nc(CCCO)n(CCO)c1Sc1cc(Cl)cc(Cl)c1 [Compound 137d, 3-(5-(3,5-dichlorophenylthio)-1-(2-hydroxyethyl)-4-isopropyl-1H-imidazol-2-yl)-propan-1-ol] |  | < 0.008 | 6.68 | 6.3 to 12.5 (≈ 16.2 to 32.1 µM) |  |  | 
CCCn1c(CO)nc(C(C)C)c1Sc1cccc([N+](=O)[O-])c1 [Compound I-24, [4-isopropyl-5-(3-nitrophenylthio)-1-n-propyl-1H-imidazol-2-yl]methanol] | 25 (≈ 74.5 µM) | 0.008 (≈ 0.0239 µM) | 2.98 |  |  |  | 
CC(C)c1nc(CCOC(N)=O)n(Cc2cccc(N)c2)c1Sc1cc(Cl)cc(Cl)c1 [Compound I-142, 1-(m-aminobenzyl)-2-(2-carbamoyloxyethyl)-5-(3,5-dichlorophenylthio)-4-isopropyl-1H-imidazole] |  | 0.016 to 0.03 (≈ 0.0334 to 0.0626 µM) | 25 | 6.3 to 12.5 (≈ 13.1 to 26.1 µM) |  |  | 
2-aminoethyl-1-n-butyl-5-(3,5-dichlorophenylthio)-4-isopropyl-1H-imidazole [Compound I-68] |  |  |  |  |  | 0.016 | 0.61
